Assay results published in article PMC7015794 (Biochemistry, 2020).

Experiments:
[1] = biological target: T1, (1,3)-β-D-glucan synthase (GS), catalytic subunit Fks1p (Saccharomyces cerevisiae, UniProt P38631); assay: GS activity assay; format: biochemical
[2] = biological target: T1, (1,3)-β-D-glucan synthase (GS), catalytic subunit Fks1p; assay: GS activity assay with […] UDP-Glc; format: biochemical

T1 sequence (P38631 whole entry): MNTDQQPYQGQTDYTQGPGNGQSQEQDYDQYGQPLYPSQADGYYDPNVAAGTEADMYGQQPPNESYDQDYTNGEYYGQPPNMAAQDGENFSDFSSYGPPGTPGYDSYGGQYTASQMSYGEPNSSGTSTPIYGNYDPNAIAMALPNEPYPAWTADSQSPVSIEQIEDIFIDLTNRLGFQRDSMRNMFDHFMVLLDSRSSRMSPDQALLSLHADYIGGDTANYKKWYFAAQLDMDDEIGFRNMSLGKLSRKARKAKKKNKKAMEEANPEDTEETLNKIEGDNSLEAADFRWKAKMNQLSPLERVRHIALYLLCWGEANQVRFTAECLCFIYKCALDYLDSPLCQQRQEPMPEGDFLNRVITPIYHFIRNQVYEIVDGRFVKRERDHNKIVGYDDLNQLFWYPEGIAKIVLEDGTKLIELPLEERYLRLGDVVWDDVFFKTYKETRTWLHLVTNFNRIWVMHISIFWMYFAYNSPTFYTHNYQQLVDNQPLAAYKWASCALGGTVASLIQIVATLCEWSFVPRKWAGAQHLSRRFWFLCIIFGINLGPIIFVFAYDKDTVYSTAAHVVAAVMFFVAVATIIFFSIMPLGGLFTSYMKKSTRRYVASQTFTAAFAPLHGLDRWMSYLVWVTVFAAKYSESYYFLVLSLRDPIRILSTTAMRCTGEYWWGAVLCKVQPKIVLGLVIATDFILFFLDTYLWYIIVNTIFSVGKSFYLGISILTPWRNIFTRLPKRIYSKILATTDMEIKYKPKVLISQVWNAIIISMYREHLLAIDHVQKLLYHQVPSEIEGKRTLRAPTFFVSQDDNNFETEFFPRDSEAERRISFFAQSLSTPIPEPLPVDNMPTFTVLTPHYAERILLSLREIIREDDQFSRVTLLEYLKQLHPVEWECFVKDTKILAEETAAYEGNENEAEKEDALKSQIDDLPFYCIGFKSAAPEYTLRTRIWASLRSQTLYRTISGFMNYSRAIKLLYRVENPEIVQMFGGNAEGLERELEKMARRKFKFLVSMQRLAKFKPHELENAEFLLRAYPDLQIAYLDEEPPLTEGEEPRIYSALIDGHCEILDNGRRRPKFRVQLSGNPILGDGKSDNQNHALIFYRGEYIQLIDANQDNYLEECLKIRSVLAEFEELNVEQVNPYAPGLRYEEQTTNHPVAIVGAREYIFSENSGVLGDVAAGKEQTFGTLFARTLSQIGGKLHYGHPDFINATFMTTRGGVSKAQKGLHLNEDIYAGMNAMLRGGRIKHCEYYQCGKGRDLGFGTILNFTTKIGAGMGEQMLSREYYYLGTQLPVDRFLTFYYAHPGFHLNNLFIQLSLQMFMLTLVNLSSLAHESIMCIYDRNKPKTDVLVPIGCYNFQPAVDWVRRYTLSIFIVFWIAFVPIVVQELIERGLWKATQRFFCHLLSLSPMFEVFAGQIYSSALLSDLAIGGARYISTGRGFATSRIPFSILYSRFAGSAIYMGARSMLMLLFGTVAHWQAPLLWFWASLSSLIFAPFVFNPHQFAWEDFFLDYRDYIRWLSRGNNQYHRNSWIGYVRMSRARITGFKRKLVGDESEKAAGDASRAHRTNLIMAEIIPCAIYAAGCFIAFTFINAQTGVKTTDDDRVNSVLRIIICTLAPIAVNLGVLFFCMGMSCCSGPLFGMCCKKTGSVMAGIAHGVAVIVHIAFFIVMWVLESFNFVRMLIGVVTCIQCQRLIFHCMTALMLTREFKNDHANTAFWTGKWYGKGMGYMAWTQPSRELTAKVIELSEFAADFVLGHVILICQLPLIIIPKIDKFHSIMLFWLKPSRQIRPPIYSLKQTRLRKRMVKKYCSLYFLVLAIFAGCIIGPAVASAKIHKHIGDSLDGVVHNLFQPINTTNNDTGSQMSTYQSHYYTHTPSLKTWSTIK
T1 sequence (P06780 2-206, further chain): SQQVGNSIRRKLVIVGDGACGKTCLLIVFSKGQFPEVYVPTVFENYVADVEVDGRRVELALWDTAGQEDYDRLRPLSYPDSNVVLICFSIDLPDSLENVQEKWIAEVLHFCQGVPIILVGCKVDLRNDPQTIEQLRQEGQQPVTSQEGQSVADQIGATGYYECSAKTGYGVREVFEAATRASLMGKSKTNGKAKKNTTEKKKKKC

IC50 [2] [mM]	Structure (SMILES)	IC50 [1] [nM]
	CC[C@H](C)C[C@H](C)CCCCCCCCC(=O)N[C@H]1C[C@@H](O)[C@@H](NCCN)NC(=O)[C@@H]2[C@@H](O)CCN2C(=O)[C@H]([C@H](O)CCN)NC(=O)[C@H]([C@H](O)[C@@H](O)c2ccc(O)cc2)NC(=O)[C@@H]2C[C@@H](O)CN2C(=O)[C@H]([C@@H](C)O)NC1=O [CFN, caspofungin]	238
5.3 ± 1	O=c1ccn([C@@H]2O[C@H](COP(=O)(O)OP(=O)(O)O[C@H]3O[C@H](CO)[C@@H](O)[C@H](F)[C@H]3O)[C@@H](O)[C@H]2O)c(=O)[nH]1 [UDP-3’-F-Glc]	
2.4 ± 0.2	O=c1ccn([C@@H]2O[C@H](COP(=O)(O)OP(=O)(O)O[C@H]3O[C@H](CO)[C@@H](O)C[C@H]3O)[C@@H](O)[C@H]2O)c(=O)[nH]1 [UDP-3’-dGlc]	
